Assay results taken from patent publication US11000506B2, “Envenomation therapies and related pharmaceutical compositions, systems and kits” (OPHIREX, INC, priority 2014, dated 2021).
Entries after “also recorded” stand apart in the source; their conditions may differ.

Legend:
[1] = system: M. fulvius venom PLA2; assay: HTS for inhibitors of M. fulvius venom PLA2; format: biochemical; settings: compounds approximately 10 μM/well
[2] = system: C. atrox venom MP; assay: HTS for inhibitors of C. Atrox venom MP; format: biochemical; settings: compounds approximately 10 μM/well
Protocol: Background. Phospholipase A2 (PLA2) catalyzes the hydrolysis of phospholipids at the sn-2 position yielding a free fatty acid and a lysophospholipid. The release of arachidonic acid from membrane phospholipids by PLA is believed to be a key step in the control of eicosanoid production within the cell. The Bee Venom PLA2 Control was a 100 μg/ml solution of bee venom PLA2 is supplied as a positive control in the kit (Abcam kit catalog number ab133089). Substrate for MP was DQ Gelatin and assay run per EnzChek gelatinase assay manufacturers instructions. Venom MP activity was not optimized in initial experiments, but reaction rates were during experiments performed by an independently contracted laboratory. SP assay was performed using Nα-Benzoyl-L-arginine-7-amido-4-methylcoumarin hydrochloride. These kits were stored as specified if stored at −20° C. Unless otherwise specified, in the case of my experiments, only crude, unfractionated lyophilized venom purchased from Sigma or the Miami Serpentarium were used. Plate Setup: Manufacturers guidelines (paraphrased herein) were followed unless otherwise specified. Data Analysis: xcel per manufacturers recommendations. MP and SP assays were prepared and plated in the same manner as PLA2 assays except substrates and fluorophores were different. PBS was the buffer in the case of MP and SP assays and absorbance measured at 495 nm. Substrate for MP was DQ Gelatin and assay run per EnzChek gelatinase assay manufacturers instructions except that experiments were run, unconventionally at 37 C to estimate human body temperature and initial experiments for PLA2, MP activity and SP activity were not optimized for screening (e.g. extremely high doses of venom were used—10 mg/mL stock in all cases since the quality of the venom was unknown with final concentration of 0.444 mg/mL in the test wells). SP assay was performed using Na-Benzoyl-L-arginine-7-amido-4-methylcoumarin hydrochloride (Sigma). Specifics of contract laboratory technique vary from the present inventor's initial experiments in terms of venom and substrate optimization, plate size (384 instead of 96), volume and temperature and other factors including different operators such as those described immediately below, performed following the first pilot experiments and subsequently extended by a contract laboratory.
Small molecule screening and dose-response experiments took place in the Yale Center for Molecular Discovery. Instrumentation used when indicated included Tecan EVO (2), Tecan Aquarius, Matrix PlateMatePlus (2), Matrix PlateMate2×2 liquid transfer robots and Titertek and Thermo Multidrop liquid dispensers (7). PerkinElmer EnVision (3) and Tecan infinite M1000 (2) plate readers sensitively measure absorbance, fluorescence, fluorescence polarization and luminescence in 96- and 384-well plate formats. A GE InCell Analyzer 2200 imaging system acquires multicolor fluorescent and transmitted light images from plates. Piloting collections used in the first phases of screening were selected by the inventor or from libraries of known compounds and natural products available at the time of experiments on selected venoms including: NCC, GenPlus, Pharmakon, Bioactive lipids, Protease Inhibitors, Procured Drugs and FDA Approved Drugs libraries. The GenPlus (the NINDS Custom Collection) from MicroSource Discovery Systems contains 960 compounds. […]

[3] = system: M. fulvius venom; assay: protection of mice from M. fulvius venom (FIG. 6A-D); format: in vivo; settings: methylvarespladib fed ad libitum in biscuits, high-dose venom ~5 hours later; N=2
Protocol: Mice received SC injections of M. fulvius venom at ^˜4 times the expected LD50 (typically estimated to be 1.3 mg/kg SC) (0.1 mg M. fulvius venom/animal for approximate dose of ^˜4 mg/kg). Prior to venom injection animals received either total dose 0.1 mg varespladib exipient (sham treatment) by SC route for calculated concentration of 4 mg/kg varespladib ^˜10-15 minutes before venom administration. Surviving animals were euthanized by CO2 inhalation at the end of experiments and observations periods ranging from ^˜12 hours to as long as 30 hours (survival being designated at 24 hours). […] In mice: Varespladib 4-8 mg/kg subcutaneously or orally with methylvarespladib, taken ad libitum. In rats, varespladib or excipient was administered intravenously at 30 seconds or 5 minutes following subcutaneous administration of venom at 4 or 8 mg/kg. Blood sampling and assay for sPLA2 activity was performed with samples taken from a surgically implanted jugular venous catheter at precise intervals (baseline, 30 minutes, 1 hour and 4 hours).
6B Mice fed methylvarespladib or exipient ad libitum in biscuits had high-dose M. fulvius venom administered ^˜5 hours after introduction of the biscuits (N=2 each group). […] 6C Venom and varespladib (4 mg/kg) or venom and excipient were mixed just prior to administration and injected subcutaneously. At 5 hours (300 minutes, down-pointing arrow), surviving animals were retreated with ½ dose varespladib (2 mg/kg) or excipient. […] Mice either received venom and sham/excipient (N=7), methylvarespladib (N=3) or varespladib (N=7) ^˜30 seconds to 1.5 minute following venom administration. […] Confirmatory experiments and results of 6E-H were performed in rats by a contract laboratory to assess expand knowledge of varespladib's capacity to act in therapeutic mode and see if the effects of intravenous administration were similar to subcutaneous administration. 6E and 6F M. fulvius venom was administered subcutaneously (4 mg/kg or 8 mg/kg) and then excipient or varespladib 8 mg/kg was administered at 30 seconds or 5 minutes after envenomation.

[4] = system: snake venom PLA2; format: biochemical
Protocol: Background. Phospholipase A2 (PLA2) catalyzes the hydrolysis of phospholipids at the sn-2 position yielding a free fatty acid and a lysophospholipid. The release of arachidonic acid from membrane phospholipids by PLA is believed to be a key step in the control of eicosanoid production within the cell. The Bee Venom PLA2 Control was a 100 μg/ml solution of bee venom PLA2 is supplied as a positive control in the kit (Abcam kit catalog number ab133089). Substrate for MP was DQ Gelatin and assay run per EnzChek gelatinase assay manufacturers instructions. Venom MP activity was not optimized in initial experiments, but reaction rates were during experiments performed by an independently contracted laboratory. SP assay was performed using Nα-Benzoyl-L-arginine-7-amido-4-methylcoumarin hydrochloride. These kits were stored as specified if stored at −20° C. Unless otherwise specified, in the case of my experiments, only crude, unfractionated lyophilized venom purchased from Sigma or the Miami Serpentarium were used. Plate Setup: Manufacturers guidelines (paraphrased herein) were followed unless otherwise specified. Data Analysis: xcel per manufacturers recommendations. MP and SP assays were prepared and plated in the same manner as PLA2 assays except substrates and fluorophores were different. PBS was the buffer in the case of MP and SP assays and absorbance measured at 495 nm. […]
Small molecule screening and dose-response experiments took place in the Yale Center for Molecular Discovery. […] PerkinElmer EnVision (3) and Tecan infinite M1000 (2) plate readers sensitively measure absorbance, fluorescence, fluorescence polarization and luminescence in 96- and 384-well plate formats. […]

[5] = target: bee venom PLA2 (Apis mellifera, UniProt P00630); format: biochemical
[6] = system: snake venom serine proteases; assay: serine protease activity with excess venom (FIG. 3); format: biochemical; settings: 100 um; venom 0.444 mg/mL; compared to marimastat and batimastat
Protocol: Substrate for MP was DQ Gelatin and assay run per EnzChek gelatinase assay manufacturers instructions. Venom MP activity was not optimized in initial experiments, but reaction rates were during experiments performed by an independently contracted laboratory. SP assay was performed using Nα-Benzoyl-L-arginine-7-amido-4-methylcoumarin hydrochloride. […] Unless otherwise specified, in the case of my experiments, only crude, unfractionated lyophilized venom purchased from Sigma or the Miami Serpentarium were used. Plate Setup: Manufacturers guidelines (paraphrased herein) were followed unless otherwise specified. Data Analysis: xcel per manufacturers recommendations. MP and SP assays were prepared and plated in the same manner as PLA2 assays except substrates and fluorophores were different. PBS was the buffer in the case of MP and SP assays and absorbance measured at 495 nm. Substrate for MP was DQ Gelatin and assay run per EnzChek gelatinase assay manufacturers instructions except that experiments were run, unconventionally at 37 C to estimate human body temperature and initial experiments for PLA2, MP activity and SP activity were not optimized for screening (e.g. extremely high doses of venom were used—10 mg/mL stock in all cases since the quality of the venom was unknown with final concentration of 0.444 mg/mL in the test wells). […]

[7] = system: snake venom metalloproteinase; assay: time course of metalloproteinase activity with excess venom (FIG. 2A); format: biochemical; settings: inhibitors 100 uM; venom 0.444 mg/mL
Protocol: Substrate for MP was DQ Gelatin and assay run per EnzChek gelatinase assay manufacturers instructions. Venom MP activity was not optimized in initial experiments, but reaction rates were during experiments performed by an independently contracted laboratory. SP assay was performed using Nα-Benzoyl-L-arginine-7-amido-4-methylcoumarin hydrochloride. […] Unless otherwise specified, in the case of my experiments, only crude, unfractionated lyophilized venom purchased from Sigma or the Miami Serpentarium were used. Plate Setup: Manufacturers guidelines (paraphrased herein) were followed unless otherwise specified. Data Analysis: xcel per manufacturers recommendations. MP and SP assays were prepared and plated in the same manner as PLA2 assays except substrates and fluorophores were different. PBS was the buffer in the case of MP and SP assays and absorbance measured at 495 nm. Substrate for MP was DQ Gelatin and assay run per EnzChek gelatinase assay manufacturers instructions except that experiments were run, unconventionally at 37 C to estimate human body temperature and initial experiments for PLA2, MP activity and SP activity were not optimized for screening (e.g. extremely high doses of venom were used—10 mg/mL stock in all cases since the quality of the venom was unknown with final concentration of 0.444 mg/mL in the test wells). SP assay was performed using Na-Benzoyl-L-arginine-7-amido-4-methylcoumarin hydrochloride (Sigma). Specifics of contract laboratory technique vary from the present inventor's initial experiments in terms of venom and substrate optimization, plate size (384 instead of 96), volume and temperature and other factors including different operators such as those described immediately below, performed following the first pilot experiments and subsequently extended by a contract laboratory.
Screening was carried out for inhibitors of venom sPLA2, MP and SPs. Stock solutions of venom at 10 mg/mL were used without typical dilution for assaying various inhibitors of sPLA2, MP and SPs. The final venom concentration in the assays was very high at 0.444 mg/mL.

[8] = system: Daboia russelli venom MP; assay: metalloproteinase activity over time, Daboia russelli venom (FIG. 2B); format: biochemical; settings: 100 uM; venom 0.444 mg/mL
Protocol: Substrate for MP was DQ Gelatin and assay run per EnzChek gelatinase assay manufacturers instructions. Venom MP activity was not optimized in initial experiments, but reaction rates were during experiments performed by an independently contracted laboratory. […] These kits were stored as specified if stored at −20° C. Unless otherwise specified, in the case of my experiments, only crude, unfractionated lyophilized venom purchased from Sigma or the Miami Serpentarium were used. Plate Setup: Manufacturers guidelines (paraphrased herein) were followed unless otherwise specified. Data Analysis: xcel per manufacturers recommendations. MP and SP assays were prepared and plated in the same manner as PLA2 assays except substrates and fluorophores were different. PBS was the buffer in the case of MP and SP assays and absorbance measured at 495 nm. Substrate for MP was DQ Gelatin and assay run per EnzChek gelatinase assay manufacturers instructions except that experiments were run, unconventionally at 37 C to estimate human body temperature and initial experiments for PLA2, MP activity and SP activity were not optimized for screening (e.g. extremely high doses of venom were used—10 mg/mL stock in all cases since the quality of the venom was unknown with final concentration of 0.444 mg/mL in the test wells). […]

Chain of bee venom PLA2 (P00630 34-167 limits assumed): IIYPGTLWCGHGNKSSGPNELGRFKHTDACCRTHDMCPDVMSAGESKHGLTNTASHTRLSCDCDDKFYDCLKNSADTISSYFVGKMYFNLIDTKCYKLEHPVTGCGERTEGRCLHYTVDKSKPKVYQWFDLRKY

Compound: Ceramide
- % effect (% inhibition) on M. fulvius venom PLA2 [1]: 43%

Compound: Cc1ccc(C(=O)Nc2ccc(S(=O)(=O)O)c3cc(S(=O)(=O)O)cc(S(=O)(=O)O)c23)cc1NC(=O)c1cccc(NC(=O)Nc2cccc(C(=O)Nc3cc(C(=O)Nc4ccc(S(=O)(=O)O)c5cc(S(=O)(=O)O)cc(S(=O)(=O)O)c45)ccc3C)c2)c1 [Suramin]
- % effect (% inhibition) on M. fulvius venom PLA2 [1]: 21%

Compound: COc1ccc(S(=O)(=O)N(Cc2cccnc2)[C@@H](C(=O)NO)C(C)C)cc1 [CGS 27023]
- percental (%) reduction of MP activity [2]: > 95%

Compound: CCc1c(C(=O)C(N)=O)c2c(OCC(=O)OC)cccc2n1Cc1ccccc1 [methylvarespladib]
- signs or symptoms of envenomation / protection from the effects of the venom [3]: complete protection; also recorded: Neither treated mouse exhibited any signs or symptoms of envenomation
- inhibition of snake venom PLA2 in vitro [4]: inhibited the measured sPLA2 activity of several medically important snake venoms
- inhibition of bee venom PLA2 [5]: only a modest effect
- inhibitory effects on snake venom serine proteases [6]: unexpected inhibitory effects

Compound: CCN(CC)CC(=O)Nc1c(C)cccc1C [Lidocaine]
- % effect (% inhibition) on M. fulvius venom PLA2 [1]: 11%

Compound: CNC(=O)[C@@H](NC(=O)[C@H](CC(C)C)[C@H](O)C(=O)NO)C(C)(C)C [marimastat]
- inhibition of metalloproteinase activity (time course) [7]: most consistently showing significant inhibition
- inhibition of Daboia russelli venom MP over time [8]: comparable inhibition

Compound: CCN(CC)CCN(Cc1ccc(-c2ccc(C(F)(F)F)cc2)cc1)C(=O)Cn1c(SCc2ccc(F)cc2)nc(=O)c2c1CCC2 [darapladib]
- inhibition of bee venom PLA2 [5]: not inhibited

Compound: O=C(CCCCCCC(=O)Nc1ccccc1)NO [Vorinostat]
- percental (%) reduction of MP activity [2]: 42%
